17 molecules from ChEMBL document CHEMBL5257018, “Novel Strategies for the Treatment of Pseudomonas aeruginosa Infections” (J Med Chem, 2016) can be followed below.

The test system of data set [1] is Pseudomonas aeruginosa. The data set is described as follows: Antimicrobial activity against polymyxin resistant Pseudomonas aeruginosa assessed as reduction in bacterial growth. Format: functional.
For data set [2], the target named is Elastase (Pseudomonas aeruginosa (strain ATCC 15692 / PAO1 / 1C / PRS 101 / LMG12228)) (UniProt P14756). The data set is described as follows: Inhibition of Pseudomonas aeruginosa PAO1 elastase at 250 uM relative to control.
For data set [3], the system named is Pseudomonas aeruginosa. The data set is described as follows: Inhibition of Pseudomonas aeruginosa PAO1 Rhamnolipid at 250 uM by spectrophotometrical analysis relative to control.
In data set [4] the test system is Pseudomonas aeruginosa. The data set is described as follows: Inhibition of Pseudomonas aeruginosa PAO1 Pyocyanin at 250 uM relative to control.
In data set [5] the test system is Pseudomonas aeruginosa. The data set is described as follows: Inhibition of biofilm formation in Pseudomonas aeruginosa PAO1 assessed as reduction in biofilm formation at 250 uM measured for 2 hrs by scanning confocal laser microscopic analysis. Format: functional.
Data set [6] has as its target T1, Acyl-homoserine lactone acylase PvdQ (Pseudomonas aeruginosa (strain LESB58), UniProt Q9I194).
T1 sequence (Q9I194 whole entry): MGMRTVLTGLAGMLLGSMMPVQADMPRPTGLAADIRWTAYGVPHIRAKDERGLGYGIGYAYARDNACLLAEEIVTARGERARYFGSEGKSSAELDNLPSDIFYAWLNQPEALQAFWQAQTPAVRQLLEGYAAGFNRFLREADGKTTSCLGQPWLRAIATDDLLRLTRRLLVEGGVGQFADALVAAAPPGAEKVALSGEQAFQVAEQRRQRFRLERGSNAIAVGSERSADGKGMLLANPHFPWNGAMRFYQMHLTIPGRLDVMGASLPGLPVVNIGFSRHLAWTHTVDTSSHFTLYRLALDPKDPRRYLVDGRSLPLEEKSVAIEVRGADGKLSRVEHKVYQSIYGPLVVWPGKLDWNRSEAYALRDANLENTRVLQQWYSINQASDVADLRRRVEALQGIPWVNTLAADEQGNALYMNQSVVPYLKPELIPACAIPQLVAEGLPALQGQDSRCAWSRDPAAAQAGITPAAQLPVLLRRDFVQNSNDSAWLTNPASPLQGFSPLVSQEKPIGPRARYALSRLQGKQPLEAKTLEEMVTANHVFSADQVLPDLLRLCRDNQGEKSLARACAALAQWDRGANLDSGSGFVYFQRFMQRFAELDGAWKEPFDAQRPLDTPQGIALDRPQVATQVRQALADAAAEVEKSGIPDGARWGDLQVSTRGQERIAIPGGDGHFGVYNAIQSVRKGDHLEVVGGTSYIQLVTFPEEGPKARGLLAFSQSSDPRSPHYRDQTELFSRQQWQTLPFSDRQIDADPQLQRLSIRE
The data set is described as follows: Inhibition of Pseudomonas aeruginosa ATCC 15692 pvdQ.

The target of data set [7] is T1, Acyl-homoserine lactone acylase PvdQ. The data set is described as follows: Inhibition of Pseudomonas aeruginosa ATCC 15692 pvdQ incubated for 4 hrs.
In data set [8] the test system is Pseudomonas aeruginosa. The data set is described as follows: Downregulation of c-di-GMP level in Pseudomonas aeruginosa PA14 planktonic cells harboring wspR gene mutation at 50 uM incubated for 24 hrs by HPLC analysis. Format: functional.
In data set [9] the target is T2, PA-I galactophilic lectin (Pseudomonas aeruginosa (strain ATCC 15692 / PAO1 / 1C / PRS 101 / LMG12228), UniProt Q05097).
T2 sequence (Q05097 whole entry): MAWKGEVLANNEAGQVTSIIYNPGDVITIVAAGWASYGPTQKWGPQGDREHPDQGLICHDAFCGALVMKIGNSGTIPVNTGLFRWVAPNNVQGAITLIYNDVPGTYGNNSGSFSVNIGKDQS
The data set is described as follows: Binding affinity to Pseudomonas aeruginosa PAO1 LecA assessed as dissociation constant.

A short description of data set [10]: Half life in mouse. Format: ADME, organism-based. Particulars: in vivo.
A short description of data set [11]: Inhibition of bacterial FabH. On the set-up: species or system Bacteria.
For data set [12], the system named is Pseudomonas aeruginosa. The data set is described as follows: Inhibition of Pseudomonas aeruginosa PAO1 Pyocyanin at 100 uM relative to control.
Data set [13] concerns the target Elastase (Pseudomonas aeruginosa (strain ATCC 15692 / PAO1 / 1C / PRS 101 / LMG12228)) (UniProt P14756). The data set is described as follows: Inhibition of Pseudomonas aeruginosa PAO1 elastase at 200 uM relative to control.
Data set [14] has as its system Pseudomonas aeruginosa. The data set is described as follows: Inhibition of Pseudomonas aeruginosa PAO1 Pyocyanin at 200 uM relative to control.
Data set [15] can be described thus: Inhibition of elastase (unknown origin). Also on record: species or system Homo sapiens.
Data set [16] addresses T3, Transcriptional activator protein LasR (Pseudomonas aeruginosa (strain ATCC 15692 / PAO1 / 1C / PRS 101 / LMG12228)) (UniProt P25084).
T3 sequence (whole entry): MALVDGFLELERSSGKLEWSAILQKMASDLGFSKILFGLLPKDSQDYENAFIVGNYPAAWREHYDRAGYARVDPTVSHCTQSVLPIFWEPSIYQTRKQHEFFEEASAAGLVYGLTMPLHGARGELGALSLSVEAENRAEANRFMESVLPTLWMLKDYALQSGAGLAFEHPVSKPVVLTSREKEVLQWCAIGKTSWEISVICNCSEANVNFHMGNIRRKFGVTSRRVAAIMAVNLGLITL
The data set is described as follows: Inhibition of Pseudomonas aeruginosa PAO1 LasR at 200 uM relative to control.

In data set [17] the test system is Pseudomonas aeruginosa. The data set is described as follows: Antibacterial activity against Pseudomonas aeruginosa PAO1 infected in Caenorhabditis elegans worms assessed as worms survival rate at 880 uM measured after 72 hrs. It is filed as functional.
The subject of data set [18] is Pseudomonas aeruginosa. The data set is described as follows: Inhibition of Pseudomonas aeruginosa PAO1 Pyocyanin at 440 uM relative to control.
Data set [19] has as its target T3, Transcriptional activator protein LasR (Pseudomonas aeruginosa (strain ATCC 15692 / PAO1 / 1C / PRS 101 / LMG12228)). The data set is described as follows: Inhibition of Pseudomonas aeruginosa PAO1 LasR at 440 uM relative to control.

Bridge positions count the residues as written; N and C are the ends. Square brackets hold non-standard residues; d marks the D form. Peptide text beside a SMILES is read from it. * marks the point of attachment. Gly(octyl) = CCCCCCCC[C@H](N)C(=O)O; Heptanoyl(6-Me) = CC(C)CCCCC(=O)*; X1 = CC[C@@H](C)CCCCC(=O)*; Octanoyl = CCCCCCCC(=O)*; Dab = NCC[C@H](N)C(=O)O

Elastase (Pseudomonas aeruginosa (strain ATCC 15692 / PAO1 / 1C / PRS 101 / LMG12228)), sequence (P14756 198-498 limits assumed): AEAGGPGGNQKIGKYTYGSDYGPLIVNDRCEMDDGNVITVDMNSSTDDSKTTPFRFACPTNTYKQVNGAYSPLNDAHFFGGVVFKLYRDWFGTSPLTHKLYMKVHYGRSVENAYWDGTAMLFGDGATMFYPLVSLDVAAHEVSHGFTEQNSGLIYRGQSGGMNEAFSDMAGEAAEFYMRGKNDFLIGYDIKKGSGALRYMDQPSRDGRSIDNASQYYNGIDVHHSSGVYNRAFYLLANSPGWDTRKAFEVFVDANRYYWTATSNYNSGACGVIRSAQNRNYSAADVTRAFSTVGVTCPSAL

Take `CC[C@@H](C)CCCCC(=O)N[C@@H](CCN)C(=O)N[C@H](C(=O)N[C@@H](CCN)C(=O)N[C@H]1CCNC(=O)[C@H]([C@@H](C)O)NC(=O)[C@H](CCN)NC(=O)[C@H](CCN)NC(=O)[C@H](CC(C)C)NC(=O)[C@@H](Cc2ccccc2)NC(=O)[C@H](CCN)NC1=O)[C@@H](C)O` (X1-[Dab]T[Dab][Dab][Dab][dF]L[Dab][Dab]T; lactam 4-C): the MIC in the data set with Pseudomonas aeruginosa [1] was less than 2 µg/mL.
For `CCCCCCCCCC(=O)NC1CCCC1` [N-CYCLOPENTYLDECANAMIDE], the inhibition in data set [2] turned out to be 77%; in the data set with Pseudomonas aeruginosa [3], 87%; with Pseudomonas aeruginosa [4], 64%. For the same molecule, in the data set with Pseudomonas aeruginosa [5], the inhibition at 250 µM amounted to 100%.
`C=CCNc1ncnc2ccc(Br)cc12`: the figures for the IC50 in [6] and in [7] were 130 µM and less than 0.02 µM, respectively.
In the data set on Pseudomonas aeruginosa [8], `O=c1c2ccccc2[se]n1-c1ccccc1` [EBSELEN] registered an Activity of 80%.
Regarding `CO[C@H]1O[C@H](CNS(=O)(=O)c2c(C)cc(C)cc2C)[C@@H](O)[C@H](O)[C@@H]1O`, in data set [9], the Kd is 3.3 µM. Also, the half-life in data set [10] turned out to be 5 min.
`O=C1c2ccccc2[Se](=O)N1c1ccccc1` (stereo unspecified) came in with an Activity with Pseudomonas aeruginosa [8] of 80%.
With `CCCCCCCC[C@@H]1NC(=O)[C@@H](Cc2ccccc2)NC(=O)[C@H](CCN)NC(=O)[C@@H](NC(=O)[C@H](CCN)NC(=O)[C@@H](NC(=O)[C@H](CCN)NC(=O)CCCCCCC)[C@@H](C)O)CCNC(=O)[C@H]([C@@H](C)O)NC(=O)[C@H](CCN)NC(=O)[C@H](CCN)NC1=O` (Octanoyl-[Dab]T[Dab][Dab][Dab][dF][Gly(octyl)][Dab][Dab]T; lactam 4-C), the minimum inhibitory concentration (MIC) in the data set with Pseudomonas aeruginosa [1] is less than 2 µg/mL.
Take `CCN(CC)S(=O)(=O)c1cc(C(=O)Nc2ccccc2C(=O)O)ccc1Br`: the 50% inhibitory concentration (IC50) in data set [11] stood at 65 µM.
`COc1ccc(/C=C/C(=O)NC[C@H]2O[C@H](OC)[C@@H](O)[C@@H](O)[C@@H]2O)cc1OC`: the Kd in data set [9] was 11 µM. Further, the half-life in data set [10] came out at 5 min.
`CCCCCCCCCNC(=O)CC(=O)c1ccccc1` registered an inhibition in the data set on Pseudomonas aeruginosa [12] of 90%.
In the case of `CCCCCCCCCC(=O)CC(=O)Nc1cccc(OC)c1`, the inhibition in data set [13] was 63%; in the data set on Pseudomonas aeruginosa [14], 93%.
With `COc1cc(/C=C2\S/C(=N\c3ccccc3)N(c3ccccc3)C2=O)cc(OC)c1O`, 380 µM corresponded to half-maximal inhibition in data set [15] (IC50).
In turn, `O=C(Cc1ccc(Br)cc1)N[C@H]1CCOC1=O` displayed an inhibition in data set [16] of 77%.
In data set [11], `CCN(CC)S(=O)(=O)c1cccc(C(=O)Nc2cccc(O)c2C(=O)O)c1` returned an IC50 of 35 µM.
In data set [10], `CO[C@H]1O[C@H](CNC(=O)/C=C/c2ccccc2)[C@@H](O)[C@H](O)[C@@H]1O` registered a half-life of 5 min.
Consider `CC(C)CCCCC(=O)N[C@@H](CCN)C(=O)N[C@H](C(=O)N[C@@H](CCN)C(=O)N[C@H]1CCNC(=O)[C@H]([C@@H](C)O)NC(=O)[C@H](CCN)NC(=O)[C@H](CCN)NC(=O)[C@H](CC(C)C)NC(=O)[C@@H](Cc2ccccc2)NC(=O)[C@H](CCN)NC1=O)[C@@H](C)O` [POLYMYXIN B2] ({Heptanoyl(6-Me)}-[Dab]T[Dab][Dab][Dab][dF]L[Dab][Dab]T; lactam 4-C), for which, in the data set with Pseudomonas aeruginosa [1], the MIC was less than 2 µg/mL.
Consider `O=C1CNC(=O)CN1` [DIKETOPIPERAZINE], for which, in the data set on Pseudomonas aeruginosa [17], the Activity came to 66%. Further, the inhibition was 85% in the data set with Pseudomonas aeruginosa [18] and 48% in data set [19].

By MIC is commonly meant the least concentration at which growth counts as inhibited. In general, inhibition refers to how much of the control response was suppressed. Usually IC50 stands for the concentration that gives 50% inhibition. A word on the Kd: it is the equilibrium constant for the complex coming apart. One may read the half-life as how long it takes for the measured level to halve. Read a high half-life as slow loss.
